Publication PMC12162873, “Modulating phosphatase DUSP22 with BML-260 ameliorates skeletal muscle wasting via Akt independent JNK-FOXO3a repression” (EMBO Molecular Medicine, 2025)
pIC50: −log10 of the molar value. Where “and” joins values, the source holds several entries; their conditions need not be identical. Equal values may be shown once. Entries after “also recorded” stand apart in the source; their conditions may differ.

Key:
[1] = system: C2C12 murine myotubes; experiment: RNA Seq of DUSP22 expression in Dex-treated C2C12 myotubes; type: cell-based, mouse; details: C2C12 myotubes treated with Dex, three clusters of n = 3, replicates
Protocol: (A) DUSP22 expression in aged individuals (over 70 years, n = 15) and aged individuals diagnosed with sarcopenia (over 70 years, n = 18), p = 0.0009 (obtained from the Singapore Sarcopenia Study; (GEO accession no. GSE111016 (Migliavacca et al, [2019])). (B) DUSP22 expression in C2C12 murine myotubes treated with vehicle or dexamethasone (Dex) to induce atrophy (n = 3 each) Custer 1 (p = 0.024), Cluster 2 (p = 0.13), Cluster 3 (p = 0.0246). Expression was measured using RNA Seq. TPM=transcript per million. (C) qPCR analysis of DUSP22 expression in four models of muscle atrophy: (1) C2C12 myotubes treated with Dex (n = 5), p = 7.67E−05, (2) the TA muscle of C57BL/6 mice treated with Dex (n = 4), p = 0.09, (3) the TA muscle of young (5 months-old, n = 9) and geriatric (27 months-old, n = 8) C57BL/6 mice, p = 0.0324, (4) the TA of C57BL/6 mice after hind limb immobilization (n = 3), p = 0.018. (D) qPCR of DUSP22 expression in C2C12 myoblasts transfected with a DUSP22 CRISPR activation plasmid (DUSP22^endoOE) or control plasmid (CON^endoOE) (n = 3), p = 0.0022. (E) Fast myosin (MYH2) immunocytochemistry of CON^endoOE and DUSP22^endoOE myoblasts after 96 h culture in DM (scale bar = 100 µm). (F) Fusion index (n = 6). (G) Differentiation index (n = 6), p = 9.91E−09. […]

[2] = system: DUSP22; set-up: method as in Cutshall et al, 2005; details: ref Cutshall et al, 2005, cited from earlier work
[3] = system: 15-month-old C57BL/6J male mice; experiment: Assessment of potential organ toxicity (liver, heart, kidney); type: in vivo, mouse; set-up: Kidney mass / Liver mass / heart mass / Kidney mass, Average / Liver mass, Average / heart mass, Average: unit not given here; details: 5 mg/kg IP every 24 h for 6 weeks
Protocol: To assess the effect of BML-260 treatment on the liver, heart and kidney, 15-month-old C57BL/6J male mice were treated as follows: 1) Vehicle (DMSO in PBS pH 7.4 with 5% Tween 80) alone, 2) 5 mg/kg BML-260 (n = 4 per group). BML-260 was administered via IP delivery every 24 h for 6 weeks. The mice were then sacrificed and the liver, kidneys and heart were weighed and photographed.
A) Photographs of the kidneys, liver, and heart after 6 weeks treatment with 5 mg/kg in 15 month-old mice. (n=4) B) Kidney(p=0.4403), liver(0.5545), and heart(0.5349) mass. ns=not statistically significant. n represents biological replicates analyzed by Student’s t test. Error bars represent the standard error of the mean (SEM).
(1 picture or pasted object on this page, not shown here)

SMILES	DUSP22 expression, RNA Seq [1]	pIC50 ([2]; EGF-R peptide P32-based assay)	IC50 for DUSP22 (in words) [2]	mode of DUSP22 inhibition [2]	kidney, liver and heart appearance and mass [3]	Kidney mass ([3]; individual animals)	Liver mass ([3]; individual animals)	heart mass ([3]; individual animals)	Kidney mass, Average ([3]; n = 4)	Liver mass, Average ([3]; n = 4)	heart mass, Average ([3]; n = 4)
C[C@@H]1C[C@H]2[C@@H]3CCC4=CC(=O)C=C[C@]4(C)[C@@]3(F)[C@@H](O)C[C@]2(C)[C@@]1(O)C(=O)CO [Dex, dexamethasone]	18.5715 TPM and 15.8769 TPM and 15.1133 TPM and 25.7965 TPM and 17.3247 TPM and 20.9604 TPM and 20.6804 TPM and 15.7123 TPM and 15.7246 TPM										
O=C(O)c1ccc(N2C(=O)C(=Cc3ccccc3)SC2=S)cc1 (stereo in doubt) [BML-260]		4.74	low micromolar range	competitive inhibitor	no major difference compared to vehicle-treated mice; also recorded: no gross significant change	4.5487 and 5.186 and 4.22 and 4.517	49.3264 and 63.6644 and 45.6088 and 64.8958	3.6875 and 4.058 and 4.981 and 4.532	4.6181	55.8738	4.315
